Laboratory results: patent US20190382432A1 (Synbias Pharma AG, priority 2013, published 2019)
Structures can show the parent of a compound that is named as a salt. Marks after values point to notes of the source that are not given here.

Key:
Type in all cases: physicochemical
[1] = Thermostability under stress conditions (storage at 100 °C for one month), HPLC
Method: Sample S was prepared according to the present invention, as described in Example 3 above. Sample M1 was prepared according to Example 1 of WO 2012/163508 A1, as described in Example 7 above. Finally, Sample M2 was prepared according to Example 2 of WO 2012/163508 A1, as described in Example 7 above.
The samples were exposed to a temperature of 100° C. for the time period (in weeks) indicated. The testing was performed as described in the ICH Guideline Q1A (R2) (cf. above). The amount of the degradation product (i.e. doxorubicinone) produced as well as those of various impurities (i.e., doxorubicin and four different impurities of yet unknown identity; all given in % (w/w); “n.d.”=not determined) was determined by HPCL analysis (“LT”=less than).

[2] = Particle size distribution by laser diffraction analysis (Mastersizer 2000); details: wet laser diffraction in acetone; listed as Sample 2, hydrochloride
Method: Laser diffraction analysis was performed in form of wet laser diffraction in acetone: 1750 rpm, 3×20 s cycle time, 60 s background time, without sonication, and 5 min stirring time using a Mastersizer 2000 Particle Size Analyzer (Malvern Instruments Ltd., Malvern, UK) according to the manufacturer's instructions.

[3] = Hygroscopic capacity: water content by Karl-Fischer titration after exposure to temperature and relative humidity; details: 25 or 40 °C, 40-90% rh, up to 15 days
Method: Coulometric Karl-Fischer titration (KFT; for determining the water content) was performed with an external drying oven (Metrohm 707 KF; operated at 140° C. with N2 purge). The samples were precisely weighed on an analytical balance (10^−5 g).
The testing was performed as described in the ICH guidelines.

[4] = Thermostability on storage at 25, 40 and 100 °C per ICH Q1A (R2), HPLC
Method: HPLC and GC analyses were performed according to standard protocols.
The testing was performed as described in the ICH guidelines (cf. inter alia ICH Guideline Q1A (R2)).

[5] = 25 °C, 12 months, hydrochloride
[6] = 25 °C, 24 months, hydrochloride
[7] = 100 °C, 0 months, hydrochloride

Structure (SMILES): COc1cccc2c1C(=O)c1c(O)c3c(c(O)c1C2=O)C[C@@](O)(C(=O)CO)C[C@@H]3O[C@H]1C[C@H](N)[C@H](O)[C@H](C)O1 [Example M2, epirubicin hydrochloride]
- Doxorubicin (NMT 1%) ([1]; 0 weeks): 0.29 % (w/w)
- Doxorubicinone (Aglycone) (NMT 1%) ([1]; 0 weeks): < 0.05 % (w/w)
- Total Impurities (NMT 2%) ([1]; 0 weeks): 0.30 % (w/w)
- Doxorubicin (NMT 1%) ([1]; 1 week, hydrochloride): 0.27 % (w/w)
- Doxorubicinone (Aglycone) (NMT 1%) ([1]; 1 week, hydrochloride): 0.54 % (w/w)
- Total Impurities (NMT 2%) ([1]; 1 week, hydrochloride): 1.30 % (w/w)
- Unknown impurity RRT 1.2 (NMT 0.15%) ([1]; 1 week, hydrochloride): 0.12 % (w/w)
- Unknown impurity RRT 1.6 (NMT 0.15%) ([1]; 1 week, hydrochloride): 0.12 % (w/w)
- Unknown impurity RRT 1.7 (NMT 0.15%) ([1]; 1 week, hydrochloride): 0.14 % (w/w)
- Doxorubicin (NMT 1%) ([1]; 2 weeks): 0.32 % (w/w)
- Doxorubicinone (Aglycone) (NMT 1%) ([1]; 2 weeks, hydrochloride): 0.59 % (w/w)
- Total Impurities (NMT 2%) ([1]; 2 weeks, hydrochloride): 1.70 % (w/w)
- Unknown impurity RRT 1.1 (NMT 0.15%) ([1]; 2 weeks, hydrochloride): 0.14 % (w/w)
- Unknown impurity RRT 1.2 (NMT 0.15%) ([1]; 2 weeks, hydrochloride): 0.12 % (w/w)
- Unknown impurity RRT 1.6 (NMT 0.15%) ([1]; 2 weeks, hydrochloride): 0.21 % (w/w)
- Unknown impurity RRT 1.7 (NMT 0.15%) ([1]; 2 weeks, hydrochloride): 0.18 % (w/w)
- Doxorubicin (NMT 1%) ([1]; 3 weeks, hydrochloride): 0.32 % (w/w)
- Doxorubicinone (Aglycone) (NMT 1%) ([1]; 3 weeks, hydrochloride): 0.61 % (w/w)
- Total Impurities (NMT 2%) ([1]; 3 weeks, hydrochloride): 1.80 % (w/w)
- Unknown impurity RRT 1.1 (NMT 0.15%) ([1]; 3 weeks, hydrochloride): 0.13 % (w/w)
- Unknown impurity RRT 1.2 (NMT 0.15%) ([1]; 3 weeks, hydrochloride): 0.13 % (w/w)
- Unknown impurity RRT 1.6 (NMT 0.15%) ([1]; 3 weeks, hydrochloride): 0.27 % (w/w)
- Unknown impurity RRT 1.7 (NMT 0.15%) ([1]; 3 weeks, hydrochloride): 0.22 % (w/w)
- Doxorubicin (NMT 1%) ([1]; 4 weeks): 0.33 % (w/w)
- Doxorubicinone (Aglycone) (NMT 1%) ([1]; 4 weeks, hydrochloride): 0.60 % (w/w)
- Total Impurities (NMT 2%) ([1]; 4 weeks, hydrochloride): 2.1* % (w/w)
- Total amount of unknown impurities ([1]; 4 weeks, hydrochloride): 1.1 % (w/w)
- Unknown impurity RRT 1.1 (NMT 0.15%) ([1]; 4 weeks, hydrochloride): 0.21 % (w/w)
- Unknown impurity RRT 1.2 (NMT 0.15%) ([1]; 4 weeks, hydrochloride): 0.16 % (w/w)
- Unknown impurity RRT 1.6 (NMT 0.15%) ([1]; 4 weeks, hydrochloride): 0.39 % (w/w)
- Unknown impurity RRT 1.7 (NMT 0.15%) ([1]; 4 weeks, hydrochloride): 0.26 % (w/w)
- D(v/0.5), mean diameter based on the volume of the particles [2]: 9.04 μm

Structure (SMILES): COc1cccc2c1C(=O)c1c(O)c3c(c(O)c1C2=O)C[C@@](O)(C(=O)CO)C[C@@H]3O[C@H]1C[C@H](N)[C@H](O)[C@H](C)O1 [epirubicin hydrochloride monohydrate, epirubicin hydrochloride]
- Hygroscopic capacity, in words [3]: does not exhibit any significant hygroscopic capacity
- Stability over a time period (overall shelf-life) ([4]; 25 °C): ≥ 5 years
- Doxorubicinone ([4]; 25 °C, 0 months): LT 0.05 % (w/w)
- Assay (intact epirubicin hydrochloride) ([4]; 25 °C, 0 months, hydrochloride): 99.2 % (w/w)
- Assay (intact epirubicin hydrochloride) ([4]; 25 °C, 1 month, hydrochloride): 99.4 % (w/w)
- Doxorubicinone ([4]; 25 °C, 1 month, hydrochloride): LT 0.05 % (w/w)
- Assay (intact epirubicin hydrochloride) ([4]; 25 °C, 3 months, hydrochloride): 99.4 % (w/w)
- Doxorubicinone ([4]; 25 °C, 3 months, hydrochloride): LT 0.05 % (w/w)
- Assay (intact epirubicin hydrochloride) ([4]; 25 °C, 6 months, hydrochloride): 99.2 % (w/w)
- Doxorubicinone ([4]; 25 °C, 6 months, hydrochloride): LT 0.05 % (w/w)
- Assay (intact epirubicin hydrochloride) [4, 5]: 99.0 % (w/w)
- Doxorubicinone [4, 5]: LT 0.05 % (w/w)
- Assay (intact epirubicin hydrochloride) [4, 6]: 99.4 % (w/w)
- Doxorubicinone [4, 6]: LT 0.05 % (w/w)
- Assay (intact epirubicin hydrochloride) ([4]; 25 °C, 36 months): 99.1 % (w/w)
- Doxorubicinone ([4]; 25 °C, 36 months): LT 0.05 % (w/w)
- Assay (intact epirubicin hydrochloride) ([4]; 25 °C, 48 months): 99.1 % (w/w)
- Doxorubicinone ([4]; 25 °C, 48 months): LT 0.05 % (w/w)
- Assay (intact epirubicin hydrochloride) ([4]; 25 °C, 60 months): 99.2 % (w/w)
- Doxorubicinone ([4]; 25 °C, 60 months): LT 0.05 % (w/w)
- Stability over a time period (thermostability) ([4]; 40 °C): ≥ 6 months
- Doxorubicinone ([4]; 40 °C, 0 months): LT 0.05 % (w/w)
- Assay (intact epirubicin hydrochloride) ([4]; 40 °C, 0 months, hydrochloride): 99.2 % (w/w)
- Assay (intact epirubicin hydrochloride) ([4]; 40 °C, 1 month, hydrochloride): 99.2 % (w/w)
- Doxorubicinone ([4]; 40 °C, 1 month, hydrochloride): LT 0.05 % (w/w)
- Assay (intact epirubicin hydrochloride) ([4]; 40 °C, 3 months, hydrochloride): 99.1 % (w/w)
- Doxorubicinone ([4]; 40 °C, 3 months, hydrochloride): LT 0.05 % (w/w)
- Assay (intact epirubicin hydrochloride) ([4]; 40 °C, 6 months, hydrochloride): 99.3 % (w/w)
- Doxorubicinone ([4]; 40 °C, 6 months, hydrochloride): LT 0.05* % (w/w)
- Doxorubicinone ([4]; 100 °C, 0 months): LT 0.05 % (w/w)
- Assay (intact epirubicin hydrochloride) [4, 7]: 99.2 % (w/w)
- Assay (intact epirubicin hydrochloride) ([4]; 100 °C, 1 month, hydrochloride): 98.3 % (w/w)
- Doxorubicinone ([4]; 100 °C, 1 month, hydrochloride): LT 0.5** % (w/w)
- Doxorubicinone ([4]; 100 °C, 1 month, listed as crystalline monohydrate of epirubicin hydrochloride, hydrochloride): less than 0.5 % (w/w)

Structure (SMILES): COc1cccc2c1C(=O)c1c(O)c3c(c(O)c1C2=O)C[C@@](O)(C(=O)CO)C[C@@H]3O[C@H]1C[C@H](N)[C@H](O)[C@H](C)O1 [epirubicin hydrochloride trihydrate, epirubicin hydrochloride]
- Doxorubicinone ([4]; 25 °C, 0 months): LT 0.05 % (w/w)
- Assay (intact epirubicin hydrochloride) ([4]; 25 °C, 0 months, hydrochloride): 98.8 % (w/w)
- Assay (intact epirubicin hydrochloride) ([4]; 25 °C, 1 month, hydrochloride): 98.7 % (w/w)
- Doxorubicinone ([4]; 25 °C, 1 month, hydrochloride): 0.06 % (w/w)
- Assay (intact epirubicin hydrochloride) ([4]; 25 °C, 3 months, hydrochloride): 98.7 % (w/w)
- Doxorubicinone ([4]; 25 °C, 3 months, hydrochloride): 0.09 % (w/w)
- Assay (intact epirubicin hydrochloride) ([4]; 25 °C, 6 months, hydrochloride): 98.4 % (w/w)
- Doxorubicinone ([4]; 25 °C, 6 months, hydrochloride): 0.22 % (w/w)
- Assay (intact epirubicin hydrochloride) [4, 5]: 98.5 % (w/w)
- Doxorubicinone [4, 5]: 0.42 % (w/w)
- Assay (intact epirubicin hydrochloride) [4, 6]: 98.0 % (w/w)
- Doxorubicinone [4, 6]: 0.62 % (w/w)
- Doxorubicinone ([4]; 40 °C, 0 months): LT 0.05 % (w/w)
- Assay (intact epirubicin hydrochloride) ([4]; 40 °C, 0 months, hydrochloride): 98.8 % (w/w)
- Assay (intact epirubicin hydrochloride) ([4]; 40 °C, 1 month, hydrochloride): 98.4 % (w/w)
- Doxorubicinone ([4]; 40 °C, 1 month, hydrochloride): 0.22 % (w/w)
- Assay (intact epirubicin hydrochloride) ([4]; 40 °C, 3 months, hydrochloride): 98.2 % (w/w)
- Doxorubicinone ([4]; 40 °C, 3 months, hydrochloride): 0.45 % (w/w)
- Assay (intact epirubicin hydrochloride) ([4]; 40 °C, 6 months, hydrochloride): 98.0 % (w/w)
- Doxorubicinone ([4]; 40 °C, 6 months, hydrochloride): 0.78* % (w/w)
- Doxorubicinone ([4]; 100 °C, 0 months): LT 0.05 % (w/w)
- Assay (intact epirubicin hydrochloride) [4, 7]: 98.8 % (w/w)
- Assay (intact epirubicin hydrochloride) ([4]; 100 °C, 1 month, hydrochloride): 89.5 % (w/w)
- Doxorubicinone ([4]; 100 °C, 1 month, hydrochloride): 4.7** % (w/w)
- Degradation on storage, in words ([4]; within six months storage at 25 °C): significant degradation
